The test system of one series is rats. Description: Gastric ulcerogenic liability in rats.
The test system of series [1] is carrageenan induced edema in rat paw. Briefly: Carrageenan induced edema model in rat paw. The note with it: 50 mg/kg oral; for Anti-inflammatory (AI) %, range over time points: range over 1, 3 and 5 h. It counts as in vivo.
Another series deals with PGE2. The note with it: read-out: PGE2 inhibition IC50; cited from earlier work.
The target in the next series is T1, COX-1 (Ovis aries, UniProt P05979).
T1 sequence (P05979 25-600): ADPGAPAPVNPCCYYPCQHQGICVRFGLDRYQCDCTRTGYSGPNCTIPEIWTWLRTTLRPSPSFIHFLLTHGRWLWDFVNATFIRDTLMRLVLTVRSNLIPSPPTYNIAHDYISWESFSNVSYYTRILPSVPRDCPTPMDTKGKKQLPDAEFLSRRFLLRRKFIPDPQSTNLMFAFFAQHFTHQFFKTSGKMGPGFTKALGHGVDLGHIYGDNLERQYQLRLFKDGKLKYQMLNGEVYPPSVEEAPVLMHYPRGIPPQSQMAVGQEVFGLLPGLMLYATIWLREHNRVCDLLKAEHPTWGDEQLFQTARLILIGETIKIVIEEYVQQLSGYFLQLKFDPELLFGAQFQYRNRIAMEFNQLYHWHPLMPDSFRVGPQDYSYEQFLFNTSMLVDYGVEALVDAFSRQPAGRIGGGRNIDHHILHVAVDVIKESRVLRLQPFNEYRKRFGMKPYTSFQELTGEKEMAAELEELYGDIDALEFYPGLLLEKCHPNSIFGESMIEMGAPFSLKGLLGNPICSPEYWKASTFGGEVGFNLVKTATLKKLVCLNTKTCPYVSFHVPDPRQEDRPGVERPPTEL
Briefly: COX-1 inhibition, enzyme immunoassay. The class given is biochemical, ovine.

Another series addresses T2, COX-2 (Ovis aries, UniProt P79208).
T2 sequence (P79208 17-603): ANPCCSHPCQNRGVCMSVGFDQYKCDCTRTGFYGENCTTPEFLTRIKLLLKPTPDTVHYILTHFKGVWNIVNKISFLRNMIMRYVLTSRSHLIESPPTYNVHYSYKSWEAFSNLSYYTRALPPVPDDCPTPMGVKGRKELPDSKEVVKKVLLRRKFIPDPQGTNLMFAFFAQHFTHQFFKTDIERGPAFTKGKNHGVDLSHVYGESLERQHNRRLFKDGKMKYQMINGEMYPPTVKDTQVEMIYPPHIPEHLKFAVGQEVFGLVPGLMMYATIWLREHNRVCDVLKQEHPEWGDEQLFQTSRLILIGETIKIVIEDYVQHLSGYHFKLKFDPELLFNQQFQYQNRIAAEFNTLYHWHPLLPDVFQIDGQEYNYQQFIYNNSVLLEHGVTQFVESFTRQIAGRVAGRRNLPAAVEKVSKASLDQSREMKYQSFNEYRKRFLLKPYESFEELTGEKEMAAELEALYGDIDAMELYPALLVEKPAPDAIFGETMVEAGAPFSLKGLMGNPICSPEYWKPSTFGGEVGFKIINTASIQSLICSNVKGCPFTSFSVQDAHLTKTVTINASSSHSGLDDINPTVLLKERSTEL
Description: COX-2 inhibition, enzyme immunoassay. The class given is biochemical, ovine. As to conditions: for SI = IC50 (COX-1)/ IC50 (COX-2): selectivity index.

For a further series, the system named is interleukin IL-6. The note with it: cited from earlier work.
For the next series, the system named is TNF-ὰ. The note with it: cited from earlier work.

By IC50 is commonly meant the midpoint of a concentration-inhibition curve. As for `Cc1ccc(-c2cc(C(F)(F)F)nn2-c2ccc(S(N)(=O)=O)cc2)cc1` [Celecoxib, reference compound], in the series with rats, the “Relative Ulcerogenicity to Celecoxib” value amounted to 1, the “Ulcer Index” value turned out to be 3.00 ± 0.09 and the “Ulcer Number” value came to 3.25 ± 0.17. Moreover, in series [1] (1 h), the “Anti-Inflammatory Activity % (AI)” value was 43% and the “Paw edema (change of paw dimensions), mean ± SEM” value stood at 0.83 ± 0.09. In addition, in series [1] (3 h), the “Anti-Inflammatory Activity % (AI)” value worked out at 43% and the “Paw edema (change of paw dimensions), mean ± SEM” value is on record as 0.80 ± 0.11. In addition, in series [1] (5 h), the “Anti-Inflammatory Activity % (AI)” value came out at 54% and the “Paw edema (change of paw dimensions), mean ± SEM” value came out at 0.65 ± 0.10. Moreover, the IC50 in the series on PGE2 is 100 nM.

In the case of `CCOC(=O)c1ccc(/N=N/c2ccc(O)c(C3c4c([nH]c(=S)[nH]c4=O)Nc4[nH]c(=S)[nH]c(=O)c43)c2)cc1` [IIIf, Ethyl (E)-4-((3-(4,6-Dioxo-2,8-Dithioxo-1,2,3,4,5,6,7,8,9,10-Decahydropyrido[2,3-D:6,5-D’]Dipyrimidin-5-Yl)-4-Hydroxyphenyl)Diazenyl)Benzoate], in the series on rats, the “Relative Ulcerogenicity to Celecoxib” value amounted to 1.25, the “Ulcer Index” value turned out to be 3.75 ± 0.11 and the “Ulcer Number” value turned out to be 3.75 ± 0.15. Moreover, in series [1] (1 h), the “Anti-Inflammatory Activity % (AI)” value is given as 52%. In series [1] (3 h), the “Anti-Inflammatory Activity % (AI)” value is 59% and the “Paw edema (change of paw dimensions), mean ± SEM” value amounted to 0.58 ± 0.11. In series [1] (5 h), the “Anti-Inflammatory Activity % (AI)” value amounted to 66% and the “Paw edema (change of paw dimensions), mean ± SEM” value is 0.48 ± 0.14. For the same compound, the “Anti-inflammatory (AI) %, range over time points” value in series [1] is recorded as 52–66%. The compound further returned a half-maximal inhibitory concentration (IC50) against COX-1 of 11200 ± 270 nM. Also, at COX-2, it took 950 ± 10 nM to reach half-maximal inhibition (IC50) and the “SI = IC50 (COX-1)/ IC50 (COX-2)” value amounted to 11.82.

Take `CCOC(=O)c1ccc(/N=N/c2cc(C3c4c([nH]c(=S)[nH]c4=O)Nc4[nH]c(=S)[nH]c(=O)c43)c(OC)cc2OC)cc1` [IIIh, Ethyl (E)-4-((5-(4,6-Dioxo-2,8-Dithioxo-1,2,3,4,5,6,7,8,9,10-Decahydropyrido[2,3-D:6,5-D’]Dipyrimidin-5-Yl)-2,4-Dimethoxyphenyl)Diazenyl)Benzoate]: in the series on rats, the “Relative Ulcerogenicity to Celecoxib” value amounted to 1.75, the “Ulcer Index” value is 5.25 ± 0.13 and the “Ulcer Number” value worked out at 6.50 ± 0.11. Also, in series [1] (1 h), the “Anti-Inflammatory Activity % (AI)” value was found to be 67% and the “Paw edema (change of paw dimensions), mean ± SEM” value stood at 0.49 ± 0.05. Besides, the “Anti-Inflammatory Activity % (AI)” value in series [1] (5 h) was 57%. Further, in series [1], the “Anti-inflammatory (AI) %, range over time points” value is listed as 57–67%. In addition, the IC50 at COX-1 was found to be 7840 ± 160 nM. Also, on COX-2, the IC50 was determined as 2430 ± 70 nM and the “SI = IC50 (COX-1)/ IC50 (COX-2)” value is listed as 3.23.

Consider `O=c1[nH]c(=S)[nH]c2c1C(c1cc(/N=N/c3ccc(-c4nc5ccccc5s4)cc3)ccc1O)c1c([nH]c(=S)[nH]c1=O)N2` [IIIi, (E)-5-(5-((4-(Benzo[D]thiazol-2-Yl)Phenyl)Diazenyl)-2-Hydroxyphenyl)-2,8-Dithioxo-2,3,5,8,9,10-Hexahydropyrido[2,3-D:6,5-D’]Dipyrimidine-4,6(1H,7H)-Dione], for which the “Anti-Inflammatory Activity % (AI)” value in series [1] (1 h) came out at 24%; in series [1] (3 h), 43%; in series [1] (5 h) it was 52%. Besides, the “Paw edema (change of paw dimensions), mean ± SEM” value in series [1] (1 h) amounted to 1.10 ± 0.14; in series [1] (3 h), 0.80 ± 0.15; in series [1] (5 h) it was 0.68 ± 0.13. In addition, the IC50 came out at 3250 ± 70 nM on COX-1 and 690 ± 20 nM against COX-2. Moreover, the “SI = IC50 (COX-1)/ IC50 (COX-2)” value on COX-2 is 4.71.

With `COc1ccc2c(c1)c(CC(=O)O)c(C)n2C(=O)c1ccc(Cl)cc1` [Indomethacin, reference compound], in the series on rats, the “Relative Ulcerogenicity to Celecoxib” value came out at 7.5, the “Ulcer Index” value worked out at 22.5 ± 0.21 and the “Ulcer Number” value is 14.25 ± 0.31.

Turning to `C[C@@H]1C[C@H]2[C@@H]3CCC4=CC(=O)C=C[C@]4(C)[C@@]3(F)[C@@H](O)C[C@]2(C)[C@@]1(O)C(=O)CO` [dexamethasone], the “inhibition of interleukin IL-6” value with interleukin IL-6 is reported as 86%. Further, in the series on TNF-ὰ, the “inhibition of TNF-ὰ” value is reported as 72%.

Values taken from article PMC8807947 (Journal of Inflammation Research, 2022).
